Literature values as cited in patent US20250222021A1, “METHOD OF TREATING ACID-BASE DISORDERS” (Renosis, Inc., priority 2017, published 2025).

System: adult patients with CKD and serum bicarbonate 16 to 20 mmol/L
Conditions: 2 years

O=C([O-])O.[Na+] [sodium bicarbonate]
Patients who developed ESRD: 6.5% | Patients with rapid progression (rapid decline of CrCl >3 ml/min per 1.73 m^2/yr): 9% | Relative risk of ESRD versus control: 0.13 | Relative risk of rapid progression versus control: 0.15 | Decrease in creatinine clearance (CrCl) (average 1.82 g/day bicarbonate): 1.88 ml/min per 1.73 m^2
